Among the data in patent publication US10519115B2, “Antidiabetic tricyclic compounds” (Merck Sharp & Dohme Corp., priority 2013, dated 2019) are EC50 values, retold here.

One may read the EC50 as the concentration giving half of the maximal effect.

Assay type in all cases: cell-based
Experiment [1] has as its target T1, Human GPR40 (Homo sapiens, UniProt O14842). The experiment in a line: Inositol Phosphate Turnover (IP1) Assay 2 (HEK cells stably expressing human GPR40, CisBio IP-One kit). More on the design: expressed in transfected cells; host or cells: HEK cells stably expressing the aequorin reporter. The settings on record: HEK cells stably expressing human GPR40, 384-well. As for the experimental part: (§1) Human and mouse GPR40 stable cell-lines were generated in CHO cells stably expressing NFAT BLA (Beta-lactamase). A human GPR40 stable cell-line was generated in HEK cells stably expressing the aequorin expressing reporter. The expression plasmids were transfected using lipofectamine (Life Technologies) following manufacturer's instructions. Stable cell-lines were generated following drug selection.
The assay was performed in 384-well format. HEK cells stably expressing human GPR40 were plated at 15,000 cells per well in growth medium (DMEM/10% fetal calf serum). Cell plates were then incubated 16 hours at 37 degrees in a 5% CO2 incubator.
Measurement of Inositol Phosphate Turnover (IP1) was performed using the CisBio IP-One kit (Part number 62IPAPEB). After the 16 hour incubation, the cells were washed with HEPES buffer and 10 ul of stimulation buffer (prepared as described in the kit) was added to each well. In a separate plate, compounds were diluted in DMSO (400-fold over the final concentration in the assay well) and 25 nl was acoustically transferred to the appropriate well in the assay cell plate. The plates were then incubated for 60 minutes at 37 degrees. 10 ul of detection buffer (also prepared as described in the IP-One kit) was added to each well and the plates were incubated for 60 minutes in the dark. The plates were then read in a Perkin Elmer EnVision or equivalent reader able to measure FRET. Fluorescent ratio of emission at 665 and 620 nm was then converted to IP1 concentration by back calculating from an IP1 standard curve prepared at the time of the assay.

Experiment [2] addresses T1, Human GPR40. The experiment in a line: Inositol Phosphate Turnover Assay 1 (HEK cells stably expressing human GPR40). More on the design: expressed in transfected cells; host or cells: HEK cells stably expressing the aequorin reporter. Conditions: HEK cells stably expressing human GPR40, 96-well, 3H-inositol; read-out: Human GPR40 IP1 Assay 1, EC50. The protocol:
as §1
The assay was performed in 96-well format. HEK cells stably expressing human GPR40 were plated to be 60-80% confluent within 72 h. After 72 h, the plates were aspirated and the cells washed with inositol-free DMEM (ICN). The wash media was replaced with 150 μL of 3H-inositol labeling media (inositol-free media containing 0.4% human albumin or 0.4% mouse albumin, 1× pen/strep antibiotics, glutamine, 25 mM HEPES to which was added 3H-myo-inositol NEN #NET114A 1 mCi/mL, 25 Ci/mmol diluted 1:150 in loading media with a final specific radioactivity of 1 μCi/150 μL). Alternatively, the human and mouse albumin can be added after the overnight labeling step before the addition of LiCl.
The assay was typically run the next day after 18 h labeling. On the day of the assay, 5 μL of 300 mM LiCl was added to all wells and incubated at 37 degrees for 20 min. 0.75 μL of 200× compounds were added and incubated with the cells for 60 min at 37 degrees. The media was then aspirated off and the assay terminated with the addition of 60 μL 10 mM formic acid. The cells were lysed for 60 min at room temperature. 15-30 μL of lysate was mixed with 70 μL/1 mg YSi SPA beads (Amersham) in clear bottom Isoplates. The plates were shaken for 2 h at room temperature. Beads were allowed to settle and the plates were counted in the Wallac Microbeta.

The target in experiment [3] is T1, Human GPR40. The experiment in a line: FLIPR assay (agonist-induced calcium mobilization, GPR40/CHO NFAT BLA cells). Further details: expressed in transfected cells. As for the experimental part:
as §1
FLIPR (Fluorimetric Imaging Plate Reader, Molecular Devices) assays were performed to measure agonist-induced calcium mobilization of the stable clones. For the FLIPR assay, one day before assay, GPR40/CHO NFAT BLA cells were seeded into black-wall-clear-bottom 384-well plates (Costar) at 1.4×10e4 cells/20 μL medium/well. The cells were incubated with 20 μl/well of the assay buffer (HBSS, 0.1% BSA, 20 mM HEPES, 2.5 mM probenecid, pH 7.4) containing 8 μM fluo-4, AM, 0.08% pluronic acid at room temperature for 100 minutes. Fluorescence output was measured using FLIPR. Compounds were dissolved in DMSO and diluted to desired concentrations with assay buffer. 13.3 μL/well of compound solution was added.

T1 sequence (O14842 whole entry): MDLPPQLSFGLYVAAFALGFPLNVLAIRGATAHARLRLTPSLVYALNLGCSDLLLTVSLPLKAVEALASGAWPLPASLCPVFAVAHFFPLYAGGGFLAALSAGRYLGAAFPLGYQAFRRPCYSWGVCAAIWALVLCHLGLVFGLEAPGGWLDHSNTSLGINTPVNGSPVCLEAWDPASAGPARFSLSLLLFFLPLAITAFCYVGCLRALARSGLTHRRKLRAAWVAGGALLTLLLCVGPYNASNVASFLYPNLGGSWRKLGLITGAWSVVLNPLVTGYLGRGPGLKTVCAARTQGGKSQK

Regarding `Cc1cc(OC2CC(C(C)(O)CO)C2)cc(C)c1-c1cc(COc2cc3c(cn2)C2C(C3)C2C(=O)O)c(F)cc1F` (single isomer, unassigned) [Compound-21], a half-maximal response at Human GPR40 [1] (EC50) required 1 nM.
On Human GPR40 [1], `Cc1cc(OC2CC(C(C)(O)CO)C2)cc(C)c1-c1cc(COc2cc3c(cn2)C2C(C3)C2C(=O)O)c(F)cc1F` (single isomer, unassigned) [Compound-22] yielded an EC50 of 0.7 nM.
On Human GPR40 [1], `O=C(O)[C@H]1[C@@H]2Cc3cc(OCc4cc(-c5ccc(OC[C@H]6C[C@@](O)(CO)C6)cc5Cl)c(F)cc4F)ncc3[C@@H]21` (single isomer, unassigned) [Compound-23] had a 50% effective concentration (EC50) of 1 nM.
On the same count and under the same terms, under `O=C(O)[C@H]1[C@@H]2Cc3cc(OCc4cc(-c5ccc(OC[C@H]6C[C@](O)(CO)C6)cc5Cl)c(F)cc4F)ncc3[C@@H]21` (single isomer, unassigned) [Compound-24] stands 1.3 nM; under `Cc1cc(OC[C@H]2C[C@@](O)(CO)C2)cc(C)c1-c1cc(COc2cc3c(cn2)[C@H]2[C@@H](C3)[C@@H]2C(=O)O)c(F)cc1F` (single isomer, unassigned) [Compound-25], 1.9 nM; under `Cc1cc(OC[C@H]2C[C@](O)(CO)C2)cc(C)c1-c1cc(COc2cc3c(cn2)[C@H]2[C@@H](C3)[C@@H]2C(=O)O)c(F)cc1F` (single isomer, unassigned) [Compound-26], 1.6 nM.
With `C[C@]1(O)C[C@@H](COc2ccc(-c3cc(COc4cc5c(cn4)[C@H]4[C@@H](C5)[C@@H]4C(=O)O)c(F)cc3C(F)(F)F)cc2F)C1` [Compound-1, (5aR,6S,6aS)-3-{[3′,4-difluoro-4′-(((1s,3s)-3-hydroxy-3-methylcyclobutyl)methoxy)-6-(trifluoromethyl)-[1,1′-biphenyl]-3-yl]methoxy}-5,5a,6,6a-tetrahydrocyclopropa[4,5]cyclopenta[1,2-c]pyridine-6-carboxylic acid], the values for the EC50 on Human GPR40 [2] and at Human GPR40 [3] were 11 nM and 7 nM, respectively.
Take `C[C@]1(O)C[C@@H](COc2c(F)cc(-c3cc(COc4cc5c(cn4)[C@H]4[C@@H](C5)[C@@H]4C(=O)O)c(F)cc3C(F)(F)F)cc2F)C1` [Compound-2, (5aR,6S,6aS)-3-{[3′,4,5′-trifluoro-4′-(((1s,3s)-3-hydroxy-3-methylcyclobutyl)methoxy)-6-(trifluoromethyl)-[1,1′-biphenyl]-3-yl]methoxy}-5,5a,6,6a-tetrahydrocyclopropa[4,5]cyclopenta[1,2-c]pyridine-6-carboxylic acid]: the EC50 on Human GPR40 [2] came to 6.9 nM; at Human GPR40 [3], 5.8 nM.
For the compound `C[C@]1(O)CC[C@H](Oc2c(F)cc(-c3cc(COc4cc5c(cn4)[C@H]4[C@@H](C5)[C@@H]4C(=O)O)c(F)cc3C(F)(F)F)cc2F)CC1` [Compound-3, (5aR,6S,6aS)-3-{[3′,4,5′-trifluoro-4′-(((1r,4r)-4-hydroxy-4-methylcyclohexyl)oxy)-6-(trifluoromethyl)-[1,1′-biphenyl]-3-yl]methoxy}-5,5a,6,6a-tetrahydrocyclopropa[4,5]cyclopenta[1,2-c]pyridine-6-carboxylic acid], the EC50 at Human GPR40 [2] was determined as 14 nM; at Human GPR40 [3], 3.7 nM.
In the case of `N#Cc1ccc(-c2ccc(-c3cc(COc4cc5c(cn4)[C@H]4[C@@H](C5)[C@@H]4C(=O)O)c(F)cc3C(F)(F)F)cc2)cc1` [Compound-9, (5aR,6S,6aS)-3-((4″-cyano-4-fluoro-6-(trifluoromethyl)-[1,1′:4′,1″-terphenyl]-3-yl)methoxy)-5,5a,6,6a-tetrahydrocyclopropa[4,5] cyclopenta[1,2-c]pyridine-6-carboxylic acid], the EC50 on Human GPR40 [2] is 8.9 nM.
Take `CS(=O)(=O)c1ccc(-c2ccc(-c3cc(COc4cc5c(cn4)[C@H]4[C@@H](C5)[C@@H]4C(=O)O)c(F)cc3C(F)(F)F)cc2)cc1` [Compound-10, (5aR,6S,6aS)-3-((4-fluoro-4″-(methylsulfonyl)-6-(tri-fluoromethyl)-[1,1′;4′,1″- terphenyl]-3-yl)methoxy)-5,5a,6,6a-tetrahydrocyclo-propa[4,5]cyclpenta [1,2-c]pyridine-6-carboxylic acid]: the EC50 at Human GPR40 [2] worked out at 2.9 nM.
As for `Cc1nc(OC[C@H]2C[C@@](C)(O)C2)ccc1-c1cc(COc2cc3c(cn2)[C@H]2[C@@H](C3)[C@@H]2C(=O)O)c(F)cc1C(F)(F)F` [Compound-14, (5 aR,6S,6aS)-3-((2-fluoro-5-(6-(((1s,3s)-3-hydroxy-3-methylcyclobutyl)methoxy)-2-methylpyridin-3-yl)-4-(trifluoromethyl)benzyl)oxy)-5,5a,6,6a-tetrahydrocyclopropa-[4,5]cyclopenta[1,2-c]pyridine-6-carboxylic acid], the results for the EC50 on Human GPR40 [1] and at Human GPR40 [2] were 1.2 nM and 6.3 nM, respectively.
For `Cc1cc(O[C@H]2C[C@H](S(C)(=O)=O)C2)cc(C)c1-c1cc(COc2cc3c(cn2)[C@H]2[C@@H](C3)[C@@H]2C(=O)O)c(F)cc1F` [Compound-15] the same measures were 1.2 nM and 6.7 nM.
Turning to `Cc1cc(-c2nnn(CC(C)(C)O)n2)cc(C)c1-c1cc(COc2cc3c(cn2)[C@H]2[C@@H](C3)[C@@H]2C(=O)O)c(F)cc1F` [Compound-16, (5aR,6S,6aS)-3-((4,6-difluoro-4′-(2-(2-hydroxy-2-methylpropyl)-2H-tetrazol-5-yl)-2′,6′-dimethyl-[1,1′-biphenyl]-3-yl)methoxy)-5,5a,6,6a-tetrahydrocyclopropa[4,5]cyclopenta[1,2-c]pyridine-6-carboxylic acid], the values for the EC50 on Human GPR40 [1] and at Human GPR40 [2] were 1 nM and 9.4 nM, respectively.
`Cc1cc(-c2ncn(CC(C)(C)O)n2)cc(C)c1-c1cc(COc2cc3c(cn2)[C@H]2[C@@H](C3)[C@@H]2C(=O)O)c(F)cc1F` [Compound-17, (5aR,6S,6aS)-3-((4,6-difluoro-4′-(1-(2-hydroxy-2-methylpropyl)-1H-1,2,4-triazol-3-yl)-2′,6′-dimethyl-[1,1′-biphenyl]-3-yl)methoxy)-5,5a,6,6a-tetrahydrocyclopropa[4,5]cyclopenta[1,2-c]pyridine-6-carboxylic acid] showed an EC50 on Human GPR40 [1] of 0.8 nM.
On to `Cc1nc(N2Cc3cn(CC(C)(C)O)nc3C2)ccc1-c1cc(COc2cc3c(cn2)[C@H]2[C@@H](C3)[C@@H]2C(=O)O)c(F)cc1C(F)(F)F` [Compound-18, (5aR,6S,6aS)-3-((2-fluoro-5-(6-(2-(2-hydroxy-2-methylpropyl)pyrrolo[3,4-c]pyrazol-5(2H,4H,6H)-yl)-2-methylpyridin-3-yl)-4-(trifluoromethyl)benzyl)oxy)-5,5a,6,6a-tetrahydrocyclopropa[4,5]cyclopenta[1,2-c]pyridine-6-carboxylic acid], for which the results for the EC50 on Human GPR40 [1] and on Human GPR40 [2] were 1 nM and 7.6 nM, respectively.
`Cc1nc(OC2CC(S(C)(=O)=O)C2)ccc1-c1cc(COc2cc3c(cn2)[C@H]2[C@@H](C3)[C@@H]2C(=O)O)c(F)cc1C(F)(F)F` (stereo partly shown) [Compound-19]: a half-maximal response at Human GPR40 [1] (EC50) required 2.1 nM.
`Cc1cc(OC[C@H]2C[C@](C)(O)[C@](C)(O)C2)cc(C)c1-c1cc(COc2cc3c(cn2)[C@H]2[C@@H](C3)[C@@H]2C(=O)O)c(F)cc1F` [Compound-20, (5aR,6S,6aS)-3-((4′-(((1s,3R,4S)-3,4-dihydroxy-3,4-dimethylcyclopentyl)methoxy)-4,6-difluoro-2′,6′-dimethyl-[1,1′-biphenyl]-3-yl)methoxy)-5,5a,6,6a-tetrahydrocyclopropa-[4,5]cyclopenta[1,2-c]pyridine-6-carboxylic acid]: on Human GPR40 [1], the EC50 turned out to be 3.1 nM.
